# “Also recorded” adds a separate entry of the source. Where two headings read alike, the source gives them in different places.
# Columns and labels:
# [1] = tested on: K18 and K8; conditions: based on prior studies; cited from earlier work
# [2] = tested on: K14.R125C keratinocytes; assay: Epithelial sheet assay (dispase assay); type: cell-based, human; conditions: 1 μM, high calcium medium, 24 h, vs vehicle-treated monolayers
# Procedure: (§1) Prior to the assay, cells were washed twice with 1.2 mM Ca^2+ PBS and incubated for 30 min at 37° C. with Dispase II (Roche Diagnostics, 9 mg/ml in 1:2 HEPES buffer:keratinocytes medium, 2 mM Ca^2+). Free-floating cell sheets were transferred to a 15 ml Falcon tube containing 5 ml 1.2 mM Ca^2+ PBS and subjected to 25 rpm overhead rotation (WiseMix overhead rotator, Witeg Labortechnik, Germany) for 1 min at room temperature. Image acquisition was done using Nikon SMZ 1500 binocular and image processing by ImageJ.
# [3] = tested on: K14.R125G keratinocytes; assay: Epithelial sheet assay (dispase assay); type: cell-based, human; conditions: 1 μM, high calcium medium, 24 h
# Procedure: as §1
# [4] = tested on: normal human keratinocytes (NHK); assay: Electrochemical impedance spectroscopy on multielectrode arrays; type: cell-based; conditions: 24 h treatment; read-out: EC50 (impedance concentration response curve)
# Source text: Skin samples were obtained for diagnostic purposes. After written informed consent, primary keratinocytes were isolated from the remaining tissue. Immortalized human control (NHK, normal human keratinocytes) and EBS keratinocytes (K14.R125C, K14.R125G, K14.N123S, K14.Y415H, K5.G138E/L175F and K5.E477D) were generated (Has et al. (2018) The Position of Targeted Next-generation Sequencing in Epidermolysis Bullosa Diagnosis. Acta Dermato-Venereologica 98:437-40; He Y, Maier K, Leppert J, Hausser I, Schwieger-Briel A, Weibel L, et al. (2016) Monoallelic Mutations in the Translation Initiation Codon of KLHL24 Cause Skin Fragility. Am J Hum Genet 99:1395-404). Keratinocytes were grown in low calcium Gibco™ Keratinocyte-SFM Medium supplemented with L-glutamine, EGF and BPE (LCM, Thermo Fisher Scientific) and cultured at 37° C., 5% CO2 and 90% humidity. […]
# Impedimetric measurements on NHK and K14.R125C keratinocytes were performed as previously described. […] Impedance spectra (500 Hz-5 MHz) were automatically recorded every 30 min using the impedance measurement platform based on an Agilent 4294A high-precision impedance analyzer (Agilent Technologies) and the self-developed controlling software IMAT advanced. […] The cell signal (relative impedance) was determined with the self-developed analysis software IDAT v3.7.2.
# [5] = tested on: K14.R125C keratinocytes; assay: Keratin aggregates by K5 immunofluorescence microscopy; type: cell-based, human; conditions: 0.8 μM PKC412, 24 h; DMSO-treated cells mean=56%
# Procedure: Skin samples were obtained for diagnostic purposes. After written informed consent, primary keratinocytes were isolated from the remaining tissue. […] Keratinocytes were grown in low calcium Gibco™ Keratinocyte-SFM Medium supplemented with L-glutamine, EGF and BPE (LCM, Thermo Fisher Scientific) and cultured at 37° C., 5% CO2 and 90% humidity. To induce cell-cell contacts, LCM was changed to high calcium medium (HCM, 1.2 mM CaCl2) and cells were incubated for 24 h.
# [6] = healthy volunteers, single oral dose (50 mg) as microemulsion; cited from earlier work
# [7] = tested on: K18 R90C mice; assay: Fas-induced liver injury; type: in vivo, mouse; conditions: for increase in serum alanine aminotransferase (ALT) level after Fas treatment: single 1× pretreatment (PKC412 25 mg/kg, PP2 1 mg/kg, Vem 1 mg/kg), Fas antibody 0.25 μg/g; for hepatocyte keratin filament organization: PP2 1 mg/kg ip daily 4d
# Procedure: (§3) All mouse experiments were performed using a protocol approved by Rutgers University Institutional Animal Care and Use Committee. Previously described 4-6 weeks-old F22 male and female mice that express the human K18 R90C mutant (FVB/N background) were used. […] For immunofluorescence experiments, mouse livers were collected after CO2 euthanasia and embedded in optimum-cutting-temperature compound then stored (−80° C.). For Fas experiments, mice were treated by intraperitoneal administration of Fas antibody (0.15 μg/g body weight; BD Pharmingen). After 5 h, mice were sacrificed followed by collection of blood and liver. Livers were fixed with 10% formalin and analyzed by hematoxylin-eosin (H&E) staining or TUNEL assay. A hemorrhage score was calculated using QuPath (Quantitative Pathology & Bioimage Analysis) and ImageJ software. Apoptosis was estimated using TUNEL assay detection kit (ApopTag Peroxidase In Situ Apoptosis; Sigma Aldrich). Fluorescence images were acquired with the same exposure time and used to count the apoptotic nuclei. Serum alanine aminotransferase (ALT) levels were determined using the Liquid ALT Reagent Set (Pointe Scientific). For the acetaminophen (APAP) experiments, the liver histopathology score was determined using a 0-4 scoring system. Scoring was conducted by two scorers blinded to treatment conditions, and the average score was used.
# [8] = tested on: desmoplakin (DSP); assay: Desmoplakin localization by immunofluorescence microscopy; type: cell-based, human; conditions: 1.2 mM CaCl2, vs vehicle-treated cells
# Procedure: Human keratinocytes grown on coverslips were fixed for 5 min in methanol (−20° C.) and 30 sec in acetone (−20° C.). Primary antibodies were diluted in 1% (w/v) BSA in TBS and incubated overnight at 4° C. in a humid chamber. The next day, coverslips were washed in TBS and incubated with the fluorophore-conjugated secondary antibody for 30 min at RT in the dark. DNA was stained with DAPI. Finally, coverslips were washed three times in TBS, rinsed briefly in aqua bidest and mounted with ProLong® Gold antifade reagent (Invitrogen). Images or Z-stacks were acquired with a confocal LSM 780 (Carl Zeiss) equipped with 40×/1.3 NA or 63×/1.4 NA oil immersion objectives and an AxioCam Mrm (Carl Zeiss). Image analysis and maximum intensity projections of Z-stacks was performed using Zen 2012 Blue software (Carl Zeiss). ImageJ was used for image processing.
# [9] = tested on: RXXpS/pT AGC-kinase motif, P-K17 S44, P-DSP S165/S166, P-DSP S2849; assay: Immunoblot with phospho-epitope specific antibodies; type: cell-based, human
# Source text: Skin samples were obtained for diagnostic purposes. After written informed consent, primary keratinocytes were isolated from the remaining tissue. Immortalized human control (NHK, normal human keratinocytes) and EBS keratinocytes (K14.R125C, K14.R125G, K14.N123S, K14.Y415H, K5.G138E/L175F and K5.E477D) were generated (Has et al. (2018) The Position of Targeted Next-generation Sequencing in Epidermolysis Bullosa Diagnosis. Acta Dermato-Venereologica 98:437-40; He Y, Maier K, Leppert J, Hausser I, Schwieger-Briel A, Weibel L, et al. (2016) Monoallelic Mutations in the Translation Initiation Codon of KLHL24 Cause Skin Fragility. Am J Hum Genet 99:1395-404). Keratinocytes were grown in low calcium Gibco™ Keratinocyte-SFM Medium supplemented with L-glutamine, EGF and BPE (LCM, Thermo Fisher Scientific) and cultured at 37° C., 5% CO2 and 90% humidity. To induce cell-cell contacts, LCM was changed to high calcium medium (HCM, 1.2 mM CaCl2) and cells were incubated for 24 h.
# To separate proteins under denaturing conditions, sodium dodecyl sulfate polyacrylamide gel electrophoresis (SDS-PAGE) was performed. Proteins were transferred to nitrocellulose membranes (VWR) using a semi-dry blotter (Armin Baack Labortechnik). Membranes were blocked using 3% (w/v) skim milk/TBS with Tween (TBST) or 3% (w/v) bovine serum albumin (BSA)/TBST and subsequently probed with the appropriate antibodies. Chemiluminescence was detected using ChemoCam Imager (Intas). Band intensity was quantified using ImageJ software.
# [10] = tested on: GFP-K18 R90C lentivirus-transduced A549 cells; assay: Keratin dots-to-filaments assay (high-throughput screen and validation); type: cell-based, human; conditions: 5 μM, 48 h
# Procedure: The screening strategy was performed as described. In brief, human A549 lung adenocarcinoma cells (American Type Culture Collection) were seeded into six-well plates overnight and then transduced with K8 WT and either the GFP-tagged K18 WT or GFP-tagged K18 R90C lentivirus for 2d. A549 cells were selected for the screening assay because of their high transduction efficiency and readily visualized keratin filaments. The transduced cells were seeded into 384-well plates for 1d followed by addition of compounds from the Navigator Pathways (Center for Chemical Genomics, University of Michigan). After 48 h, cells were fixed counterstained with 4′,6-diamidino-2-phenylindole (DAPI; Invitrogen). Images were taken with the Image Xpress Micro XLS High Content Imaging System then analyzed using MetaXpress software (Molecular Devices). Compounds that decrease the number of keratin dots/cell and promote keratin filament formation were selected for secondary validation. 945 compounds from the Navigator Pathways library were screened. The library consists of several daughter sets that cover a range of pathways including Autophagy, Wnt, Epigenetics, Protein Kinases, Proteases, Redox, Cannabinoids, and Natural Products.
# [11] = PP2 content in liver and serum by UPLC-UV; type: in vivo, mouse
# Procedure: Mice were sacrificed and livers were harvested at the indicated times. […] The column was washed once with 1 mL 100% methanol and eluted with 1 mL 5% NH4OH in methanol. […] The evaporated sample was resuspended in […] injection solvent [80% (5% ammonium hydroxide in methanol)+20% (10 mM ammonium formate+0.1% formic acid)], and […] was injected for ultra-performance liquid chromatography (UPLC). […] The supernatant was transferred to new tubes then processed further for SPE and UPLC exactly as carried out for the liver tissue extracts.
# A Waters ACQUITY UPLC system equipped with Empower software and H-Class PLUS (CH-A) Core was used. […] The column was eluted at flow rate of 0.5 ml/min with linear gradients of solvents A and B (A, 10 mM ammonium formate, 0.1% formic acid in water; B, 0.1% formic acid in methanol).
# [12] = K18 R90C mice, PP2 1 mg/kg intraperitoneally daily for 4d, female and male
# Procedure: as §3
# [13] = tested on: GFP-K18 R90C transduced A549 cells; assay: IFN-γ/FasL-induced apoptosis in cultured cells; type: cell-based, human
# Procedure: (§2) A549 cells were cultured using Ham's F-12K medium (Thermo Fisher Scientific) supplemented with 10% fetal bovine serum (Sigma Aldrich) and 1% penicillin and 10,000 U/mL streptomycin (Life Technologies).
# [14] = tested on: K18 R90C mice
# Procedure: as §3
# [15] = tested on: A549 cells; conditions: PP2 10 μM, A549 cells expressing K18 R90C
# Procedure: as §2
# [16] = tested on: K18 and K8; assay: K8/K18 phosphorylation by mass spectrometry and immunoblot; type: cell-based, human
# Procedure: Cell and liver samples were solubilized using a Dounce homogenizer in 2% SDS-containing PBS supplemented with protease inhibitor (Thermo Fisher Scientific), then sonicated 80× (is pulse, intensity 70) (Fisher Scientific; Model: FB50). Lysates were pelleted (16,000 g×10 min/20° C.) and the supernatant was used for subsequent analysis. Equal amounts of protein were separated by SDS-polyacrylamide gel electrophoresis (PAGE) then transferred to polyvinylidene fluoride membranes (Bio-Rad) followed by immunoblotting. For immunoprecipitation, K18 R90C-transduced A549 cells were homogenized in PBS containing 1% Nonidet P-40 (NP40), protease inhibitors, and okadaic acid (Cayman Chemical; 1 μg/mL). […] For mass spectrometry, conjugated beads were suspended in PBS-buffered 8M urea to yield ˜6 g (in 60 μl urea-containing buffer). Samples were separated SDS-PAGE, followed by in-gel tryptic digestion then LC-MS/MS analysis. Peptides were identified by the Mass Spectrometry Facility at Rutgers University.
# [17] = PKC412 25 mg/kg ip daily 4d, male and female, Fas challenge
# [18] = female mice, PP2 1 mg/kg ip 4d, Fas antibody 0.15 μg/g 5 h
# [19] = male mice, PP2 1 mg/kg ip 4d, Fas antibody 0.15 μg/g 5 h
# [20] = K18 R90C-expressing A549 cells, mass spectrometry, PP2 vs DMSO
molecule,measurement,setting,value
4′-N-benzoylstaurosporine [PKC412],K18 S34 and K8 S432 phosphorylation,[1],no effect
same,epithelial monolayer integrity after rotation,[2],remained fully intact
same,fragility of mutant epithelial sheets,[3],rescued fragility
same,EC50,[4],84 nM
same,keratin aggregate-containing cells (mean),[5],13%
same,"tolerability, single oral dose",[6],well tolerated
same,"protection from Fas-induced liver injury, male versus female","[7]; PKC412 25 mg/kg ip daily 4d, Fas antibody 0.15 μg/g 5 h",equally protects both sexes
same,ALT levels,[7]; [17],significantly reduced
same,extent of hemorrhage,[7]; [17],significantly reduced
same,increase in serum alanine aminotransferase (ALT) level after Fas treatment,[7]; male mice,significantly reduced
same,DSP at sites of cell-cell contacts,[8],significant increase
same,phosphorylation at AGC-kinase motif RXXpS/pT,[9]; EBS K14.R125C cells vs vehicle-treated,significant reduction in phosphorylation
same,K17 phosphorylation at P-S44,[9]; NHK and K14.R125C cells vs vehicle,significantly reduced
same,DSP phosphorylation at S165 and S166,[9]; vs DMSO-treated cells,significantly reduced
same,DSP phosphorylation at S2849,[9]; vs DMSO-treated cells,significantly reduced
"CC(C)(C)n1nc(-c2ccc(Cl)cc2)c2c(N)ncnc21 [PP2, 1-tert-butyl-3-(4-chlorophenyl)-1H-pyrazolo[3,4-d]pyrimidin-4-amine]",percentage of cells with keratin mutant aggregates,[10],significantly decreased
same,PP2 in serum,"[11]; 1 mg/kg, 1 h after administration",no detectable PP2
same,PP2 in liver,"[11]; after 4 h, male or female mice",no detectable PP2
same,PP2 levels in male mouse liver compared to female mouse liver,[11]; as a function of time,significantly higher
same,PP2 in liver,"[11]; male and female FVB/N mice, 1 mg/kg, 1 h after administration",detected
same,body or liver weight,[12],does not have an effect; also recorded: no significant effect
same,induction of apoptosis under basal non-Fas condition (TUNEL),"[13]; 5 μM, no Fas challenge",does not induce apoptosis
same,cleaved caspases 3 and 7,[13]; PP2 5 μM 48 h then IFN-γ and FasL,decreased presence
same,TUNEL-positive cells,"[13]; PP2 5 μM 48 h then IFN-γ and FasL, without PP2 37%",8%
same,tested necrosis markers,[14]; PP2 vs vehicle,no significant difference
same,histologic protection,[14]; male compared with female PP2-treated mice,significant histologic protection
same,tolerability in cells,[15],not well tolerated
same,liver TUNEL-positive cells,"[7]; PP2 1 mg/kg ip 4d, Fas challenge",fewer TUNEL-positive cells
same,SRC phosphorylation at stimulatory phospho-site Y416 in liver,[7]; female livers,not female
same,hepatocyte keratin filament organization,[7]; female livers,not female
same,ALT levels,[7]; [18],not female
same,parenchymal liver hemorrhage,[7]; [18],not female
same,SRC phosphorylation at stimulatory phospho-site Y416 in liver,[7]; male livers,decreased
same,hepatocyte keratin filament organization,[7]; male livers,normalized keratin filaments
same,ALT levels,[7]; [19],improved
same,parenchymal liver hemorrhage,[7]; [19],improved
same,increase in serum alanine aminotransferase (ALT) level after Fas treatment,[7]; male mice,significantly reduced
same,okadaic acid-induced hyperphosphorylation of K18/K8,"[16]; A549 cells, PP2 5 μM 48 h, okadaic acid 1 μg/mL",reversed
same,decrease of global phosphorylation of K8,[16]; [20],38%
same,decrease of global phosphorylation of K18,[16]; [20],43%
same,K18 S34 and K8 S432 phosphorylation,"[16]; immunoblot, PP2 5 μM 48 h",significant decrease
